Data set [1] concerns P. falciparum Dd2 (CQR). Conditions: cited from earlier work.
The subject of data set [2] is P. falciparum 7G8 (CQR). To be noted: CQR 7G8, cited from earlier work.
Data set [3] concerns mouse spleen lymphocytes. Conditions: cited from earlier work.
Data set [4] deals with P. falciparum D6 (CQS). To be noted: cited from earlier work.
In another data set the test system is P. yoelii. In words: In vivo 3-day suppressive test against P. yoelii in a murine malaria model. Also on record: species or system Plasmodium yoelii. To be noted: mice, oral gavage, 3 daily doses, water-soluble hydrochloride or phosphate salts; errors estimated ±20%. Here is the method:
A selection of the compounds (compounds 9, 10, 12, 21, 23, and 24) was tested in vivo against P. yoelii in a murine malaria model. The compounds were first converted to water-soluble hydrochloride or phosphate salts for administration in aqueous solution. Efficacy testing was carried out using 4 different dose levels with 5 mice at each level, administered by oral gavage. […] A single-dose toxicity evaluation was also performed, using 1 or 2 mice in each case. The doses were limited by water solubilities.
In vivo 3-day suppressive test.
Female CF-1 mice, at 4 to 5 weeks of age, were injected intravenously with 10^6 erythrocytes infected with P. yoelii ([43][–][45]). The following day, and then daily for a total of 3 doses, 5 mice each were administered the appropriate dose of the compound by gavage and evaluated by direct microscopic analysis of Giemsa-stained blood smears ([46]) 1 day after the final dose. The Portland State University Institutional Animal Care and Use Committee approved the protocols involving animals used in this study.

Data set [5] can be described thus: In vitro heme binding (optical titration). Conditions: 5 μM heme, phosphate buffer 100 mM, pH 5.7; read-out: heme binding dissociation constant (Kd). Here is the method: In vitro heme binding and β-hematin inhibition.
A 5 mM stock solution of heme was prepared by dissolving heme chloride in 0.1 mM NaOH by incubation at 37°C for 30 min. The solution was stored at 4°C for no more than 1 month. At the beginning of each experiment, the stock heme solution was diluted to 5 μM in phosphate buffer (100 mM, pH 5.7) and allowed to equilibrate for 4 h. The 4-h equilibration allowed for the initial heme absorbance to stabilize prior to beginning the titration. Optical titrations with each compound were performed by successive addition of aliquots of its stock solution to the 5 μM heme solution. […] Equilibrium binding constants were determined by nonlinear least-squares analysis ([39]).

Data set [6] relates to P. falciparum D6 (CQS). Put plainly: Inhibition of P. falciparum growth, CQS D6 (SYBR green I fluorescence). In kind it is cell-based. Conditions: Plasmodium falciparum. An excerpt:
(§1) Inhibition of P. falciparum growth.
(§2) CQS (D6) and CQR (Dd2 and 7G8) P. falciparum maintained continuously in culture were used ([38]). […] The fluorescence readings were plotted against log(drug), and the IC50s were obtained from curve fitting performed by nonlinear regression using either Prism (GraphPad) or Excel (Microsoft) software.

Data set [7] in a line: Single-dose toxicity evaluation in mice. In kind it is in vivo. Conditions: for Toxicity observation: single-dose experiments on 1 or 2 mice/compound, doses limited by water solubility. Here is the method: The compounds were first converted to water-soluble hydrochloride or phosphate salts for administration in aqueous solution. Efficacy testing was carried out using 4 different dose levels with 5 mice at each level, administered by oral gavage. […] A single-dose toxicity evaluation was also performed, using 1 or 2 mice in each case.

For data set [8], the system named is mouse spleen lymphocytes. Put plainly: Cytotoxicity against mouse spleen lymphocytes. Conditions: estimated ±50%. The format is cell-based.
The subject of data set [9] is P. falciparum Dd2 (CQR). Put plainly: Inhibition of P. falciparum growth, CQR Dd2 (SYBR green I fluorescence). Conditions: Plasmodium falciparum. In kind it is cell-based.
Excerpt: as §1, §2

For data set [10], the system named is P. falciparum 7G8 (CQR). In words: Inhibition of P. falciparum growth, CQR 7G8 (SYBR green I fluorescence). Conditions: Plasmodium falciparum, 7G8, 72 h; read-out: IC50 (nM) for P. falciparum 7G8. The format is cell-based, Plasmodium falciparum.
Excerpt: as §1, §2

The mark [11] stands for this setting: D6, 72 h, read-out: IC50 (nM) for P. falciparum D6.
The mark [12] stands for this setting: DD2, 72 h, read-out: IC50 (nM) for P. falciparum Dd2.

Where two headings read alike, the source gives them in different places.

Consider `CN(CCCNc1ccnc2cc(Cl)ccc12)CCCN1c2ccccc2CCc2ccccc21` [Compound 1], for which the results for the IC50 with P. falciparum Dd2 (CQR) [1] (ref Burgess et al. (31)), in the data set with P. falciparum 7G8 (CQR) [2] (ref Burgess et al. (31)) and with P. falciparum D6 (CQS) [4] (ref Burgess et al. (31)) were 5.3 nM, 4 nM and 2.9 nM, respectively. Besides, the Cytotoxicity with mouse spleen lymphocytes [3] (ref Burgess et al. (31)) is listed as 700 nM.

Regarding `O=C(CNCCNc1ccnc2cc(Cl)ccc12)N(Cc1ccccc1)Cc1ccccc1` [Compound 2], the IC50 is 16 nM in the data set on P. falciparum Dd2 (CQR) [1] (ref Andrews et al. (32)) and 14 nM with P. falciparum D6 (CQS) [4] (ref Andrews et al. (32)). The Cytotoxicity with mouse spleen lymphocytes [3] (ref Andrews et al. (32)) was 62,000 nM.

For the molecule `Clc1ccc2c(NCCCN3CCN(C(c4ccccc4)c4ccccc4)CC3)ccnc2c1` [Compound 3], the figures for the IC50 in the data set on P. falciparum Dd2 (CQR) [1] (ref Burgess et al. (33)), in the data set on P. falciparum 7G8 (CQR) [2] (ref Burgess et al. (33)) and with P. falciparum D6 (CQS) [4] (ref Burgess et al. (33)) were 2.6 nM, 11 nM and 1.9 nM, respectively. Besides, the Cytotoxicity in the data set with mouse spleen lymphocytes [3] (ref Burgess et al. (33)) is 1,100 nM.

`Clc1ccc2c(NCCCN3CCN(c4ccccc4)CC3)ccnc2c1` [Compound 9, 7-Chloro-N-(3-(4-phenylpiperazin-1-yl)propyl)quinolin-4-amine]: the ED50 with P. yoelii is reported as 2 mg/kg/day. Further, the Kd in data set [5] is ~5000 nM. Also, the half-maximal inhibitory concentration (IC50) with P. falciparum D6 (CQS) [6] (setting [11]) was 0.4 nM; in the data set with P. falciparum D6 (CQS) [6] (D6, read-out: IC50 from dose-response curve against CQS D6 (Fig 4a)), 0.5 nM; in the data set on P. falciparum Dd2 (CQR) [9] (setting [12]) it was 0.7 nM; in the data set with P. falciparum Dd2 (CQR) [9] (DD2, read-out: IC50 from dose-response curve against CQR Dd2 (Fig 4b)), 0.5 nM; in the data set with P. falciparum 7G8 (CQR) [10], 0.6 nM. For the same molecule, the Toxicity observation result in [7] is reported as “Well tolerated at 300 mg/kg”. For the same molecule, the “dose without evident toxicity as multiple of the ED50” value in data set [7] (single-dose toxicity screen in mice vs ED50 against P. yoelii) stood at 150 fold. In the data set on mouse spleen lymphocytes [8], the Cytotoxicity was 6,400 nM.

With `COc1ccc(N2CCN(CCCNc3ccnc4cc(Cl)ccc34)CC2)cc1` [Compound 12, 7-Chloro-N-(3-(4-(4-methoxyphenyl)piperazin-1-yl)propyl)quinolin-4-amine], in the data set on P. yoelii, the ED50 is given as 10 mg/kg/day. The Kd in data set [5] is ~5000 nM. In addition, the IC50 in the data set with P. falciparum D6 (CQS) [6] (setting [11]) is 1.3 nM; in the data set with P. falciparum Dd2 (CQR) [9] (setting [12]) it was 0.3 nM; with P. falciparum 7G8 (CQR) [10] it was 0.3 nM. For the same molecule, the Toxicity observation entry in [7] is “Well tolerated at 500 mg/kg”.

`Clc1ccc2c(NCCCN3CCNCC3)ccnc2c1` [Compound 16]: the IC50 with P. falciparum Dd2 (CQR) [1] (ref Burgess et al. (33)) was 6.8 nM; with P. falciparum D6 (CQS) [4] (ref Burgess et al. (33)) it was 4.3 nM. Also, in the data set on mouse spleen lymphocytes [3] (ref Burgess et al. (33)), the Cytotoxicity is recorded as 23,000 nM.

The values above are taken from article PMC5404532, “Simplified Reversed Chloroquines To Overcome Malaria Resistance to Quinoline-Based Drugs” (Antimicrobial Agents and Chemotherapy, 2017).
